# Results as given in US20120258998A1, “Fusion genes in gastrointestinal cancer” (priority 2011, published 2012).
# Like-named read-outs stand apart in the source and are kept apart here.
# Tests used:
# Assay type in all cases: cell-based
# SNU16 cells [1] = test: 5-Fluorouracil sensitivity, MTS proliferation assay; details: SNU16 cells before and after CD44-SLC1A2 siRNA1 silencing, vs scrambled siRNA
# Description: (§1) Gastric cancer cells and primary tissues were lysed with glutamate assay buffer and glutamate concentrations were determined using a Glutamate Assay Kit (BioVision, USA). Briefly, to each cellular lysate, a vendor-provided glutamate Enzyme Mix was added which recognizes glutamate as a specific substrate leading to proportional color development. For cisplatin treatments, cells were seeded into 96 well plates after siRNA transfection. Subsequently, cisplatin or 5-FU at increasing dosages were added (0-1 mM) to respective wells. Cells were subjected to MTS proliferation assays after 48 hours of drug treatment. Each assay was performed in triplicate, and the results were averaged over three independent experiments.
# SNU16 cells [2] = test: Matrigel cell invasion assay, SNU16; details: vs control
# Description: (§2) Gastric cancer cells were transfected with either specific siRNAs targeted to the CD44-SLC1A2 fusion site (100 nM, custom siRNA siGENOME with SMART selection, Dharmacon) or negative control scrambled siRNAs using siPORT™ NeoFX™ transfection reagent (Applied Biosystem) in Optimem Medium (Invitrogen) following the manufacturer's protocol. After 24, 48, and 72 hours siRNA treatment, cells were subjected for downstream analysis. For overexpression studies, the full length coding regions of CD44-SLC1A2 cDNA were inserted into the pEGFP-N1 vector. Control vectors or fusion-GFP vectors were introduced into HFE145 cells, and stable transfectants were selected using puromycin for 4 weeks.
# (§3) Cell proliferation assays were performed using a CellTiter-96 Aqueous Nonradioactive Cell Proliferation Assay kit (Promega) following the manufacturer's instructions and the plates were measured by PerkinElmer plate reader. Cell invasion assays were performed using Biocoat™ Matrigel™ invasion chambers with 8 μm pore filter inserts (BD Bioscience). 48 hours after transfection, 5×10^4 cells were transferred to the upper matrigel chamber in 500 μl of serum-free medium and incubated for 24 hours. Invading cells were counted using light microscopy. Each assay was performed in triplicate, and the results were averaged over three independent experiments.
# SLC1A2 protein [3] = test: Western blotting with anti-SLC1A2 antibodies, SNU16 membrane fraction; details: after fusion-specific siRNA
# Description: Cells were harvested in lysis buffer (10 mM Tris.Cl pH 7.5, 150 mM NaCl, 1% Triton X-114) for 1 hour at […], and centrifuged at 800 g. Supernatants were incubated at 30° C. for 5-10 min and further centrifuged at RT, 300 g. Western blotting was performed on membrane fractions using the following antibodies and dilutions: 1:500 SLC1A2/EAAT2 (Cell Signaling Technologies), 1:2000 α-tubulin (Cell Signaling Technologies). Experiments were repeated a minimum of three independent times.
# as §2
# AGS cells = test: Cell proliferation assay, AGS fusion negative cells
# Description: Gastric cancer cells were transfected with either specific siRNAs targeted to the CD44-SLC1A2 fusion site (100 nM, custom siRNA siGENOME with SMART selection, Dharmacon) or negative control scrambled siRNAs using siPORT™ NeoFX™ transfection reagent (Applied Biosystem) in Optimem Medium (Invitrogen) following the manufacturer's protocol. After 24, 48, and 72 hours siRNA treatment, cells were subjected for downstream analysis. For overexpression studies, the full length coding regions of CD44-SLC1A2 cDNA were inserted into the pEGFP-N1 vector. Control vectors or fusion-GFP vectors were introduced into HFE145 cells, and stable transfectants were selected using puromycin for 4 weeks. Cell proliferation assays were performed using a CellTiter-96 Aqueous Nonradioactive Cell Proliferation Assay kit (Promega) following the manufacturer's instructions and the plates were measured by PerkinElmer plate reader. Cell invasion assays were performed using Biocoat™ Matrigel™ invasion chambers with 8 μm pore filter inserts (BD Bioscience). 48 hours after transfection, 5×10^4 cells were transferred to the upper matrigel chamber in 500 μl of serum-free medium and incubated for 24 hours. Invading cells were counted using light microscopy. Each assay was performed in triplicate, and the results were averaged over three independent experiments. […]
# CD44-SLC1A2 fusion gene = test: RT-PCR of CD44-SLC1A2 expression after fusion-specific siRNA treatment; details: SNU16 cells, siRNA 100 nM, vs scrambled siRNA
# Description: (§4) Gastric cancer RNAs were reverse transcribed by SuperScript II reverse transcriptase enzyme using oligo-dT (T18) primers (Invitrogen). To detect CD44-SLC1A2, RT-PCR was performed using forward primers to CD44 exon 1 (5′-[…]-3′ (SEQ ID NO: 3)) and reverse primers to either SLC1A2 exon 3 (5′-[…]-3′ (SEQ ID NO: 4)); exon4 (5′-[…]-3′) (SEQ ID NO: 5); exons (5′-[…]-3′ (SEQ ID NO: 6)) or exon 6 (5′[…]-3′ (SEQ ID NO: 7)). Products were resolved by gel electrophoresis and bands of interest excised and cloned for subsequent analysis. To evaluate wild-type CD44 and SLC1A2 expression independently of CD44-SLC1A2, we used CD44 primers targeting exons 3, 4, 5; and SLC1A2 primers targeting exon 1. CD44-SLC1A2 RT-PCR involving clinical specimens (FIG. 1) was performed in an unselected cohort of gastric cancer patients. Reactions were repeated a minimum of three independent times.
# (§5) Gastric cancer cells were transfected with either specific siRNAs targeted to the CD44-SLC1A2 fusion site (100 nM, custom siRNA siGENOME with SMART selection, Dharmacon) or negative control scrambled siRNAs using siPORT™ NeoFX™ transfection reagent (Applied Biosystem) in Optimem Medium (Invitrogen) following the manufacturer's protocol. After 24, 48, and 72 hours siRNA treatment, cells were subjected for downstream analysis. […]
# SLC1A2 protein [4] = test: Immunofluorescence staining with SLC1A2 antibodies; details: SNU16 cells, control vs fusion silenced
# Description: as §2
# Cells were fixed with 3.7% formaldehyde followed by permeabilisation using 0.1% Triton X-100. After 3× washes with 1×PBS, cells were blocked with 1% BSA. Subsequently, cells were incubated with primary SLC1A2 antibodies (Cell Signaling Technology) for 2 hours followed by 2 hours secondary antibody (Sigma) incubation. Images were taken using a Nikon Eclipse TE2000-U microscope.
# SNU16 cells [5] = test: Colony formation assay, SNU16; details: vs scrambled siRNA
# Description: as §2
# Base layers of 0.5% Gum Agar in 1× McCoy's 5 A and 10% FBS were poured into 6-well plates and allowed to harden at 4° C. After 48 hours siRNA transfection, 50,000 cells/well were seeded in complete media plus agar mixture at 42° C. and seeded on top of the solidified base layer. Plates were incubated at 37° C. in for 3-4 weeks, during which plates were fed drop-wise with complete media. After 3-4 weeks, plates were photographed using the Kodak GL 200 System (EpiWhite illumination). Each assay was performed in triplicate, and the results were averaged over three independent experiments.
# SNU16 cells [6] = test: Cell proliferation assay, SNU16; details: vs scrambled/control siRNA
# Description: as §2, §3
# [7] = tested on: wild-type CD44 and SLC1A2; test: RT-PCR of wild-type CD44 and SLC1A2 expression after fusion-specific siRNA treatment; details: SNU16 cells
# Description: as §4, §5
# SNU16 cells [8] = test: Cisplatin sensitivity, MTS proliferation assay; details: 48 hours of drug treatment, read-out: GI50 (concentration required to cause 50% growth inhibition)
# Description: as §1
compound,measurement,setting,value
O=c1[nH]cc(F)c(=O)[nH]1 [5-fluorouracil],"5-Fluorouracil sensitivity, control vs CD44-SLC1A2 silenced cells",SNU16 cells [1],no differences between control and silenced cells were observed
same,"5-Fluorouracil sensitivity, control vs CD44-SLC1A2 silenced cells",SNU16 cells [1]; listed as 5-Fluorouracil,no significant change in sensitivity to 5-Fluorouracil
"siRNA2: second siRNA targeting the CD44-SLC1A2 fusion site, 5′-GCACAUCGUGCCAACAAUAUU-3′ (SEQ ID NO: 28) (chemistry not given here)",cell invasion rate,SNU16 cells [2],significant reduction of invasion rate
same,SLC1A2 protein expression (Western blotting),SLC1A2 protein [3],knockdown of SLC1A2 protein expression
same,proliferation of AGS cells after fusion-specific siRNA,AGS cells,proliferation of AGS cells is not affected
same,CD44-SLC1A2 expression,CD44-SLC1A2 fusion gene,Reduction of CD44-SLC1A2 expression
same,membranous expression of SLC1A2 (immunofluorescence),SLC1A2 protein [4],significantly reduced
same,colony formation (anchorage-independent growth),SNU16 cells [5],reduction in numbers of colonies formed
same,proliferation rate,SNU16 cells [6],significant decrease in proliferation rate
same,independent (regular) CD44 and SLC1A2 expression,[7],without impairing regular CD44 and SLC1A2 expression
"siRNA1: siRNA targeting the CD44-SLC1A2 fusion site, 5′-CGCAGAUCGUGCCAACAAUUU-3′ (SEQ ID NO: 27) (chemistry not given here)",proliferation of AGS cells after fusion-specific siRNA,AGS cells,proliferation of AGS cells is not affected
N.N.[Cl][Pt][Cl] [cisplatin],GI50,SNU16 cells [8]; SNU16 cells after CD44-SLC1A2 siRNA treatment,3.96 µM
same,GI50,SNU16 cells [8]; control SNU16 cells,11.8 µM
